According to patent publication US10357036B2, “Compounds for controlling arthropods” (priority 2015, dated 2019):
Read-outs that look alike come from different tables or passages of the source.

Tests used:
Rhipicephalus sanguineus = Rhipicephalus sanguineus in vitro contact test with adult brown dog ticks; type: in vivo; details: application rate 5 μg/cm^2 (=500 g/ha); after 48 h; dead or moribund ticks
Outline: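 Adult Rhipicephalus sanguineus (5-10 per tube) held in glass tubes coated with compound from acetone solution, 900 ppm giving 5 μg/cm^2, in the dark at room temperature. After 48 h ticks put on a 45-50° C hotplate up to 5 min; motionless or uncoordinated ticks scored dead/moribund as % efficacy.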

Spodoptera frugiperda = Spodoptera frugiperda spray test; type: in vivo; details: 100 g/ha, after 7 days; for pest or weed control at 100 g/ha: Spodoptera frugiperda, 168 h, read-out: efficacy
Boophilus microplus = Boophilus microplus injection test; type: in vivo; details: 20 μg/animal; assessed after 7 days
Protocol: (§1) • Solvent: dimethyl sulfoxide
1 μl of the active ingredient solution is injected into the abdomen of 5 engorged adult female cattle ticks (Boophilus microplus). The animals are transferred into dishes and kept in a climate-controlled room.

[1] = test system: cattle ticks (Boophilus microplus) Parkhurst strain, SP-resistant; experiment: Boophilus microplus dip test; type: in vivo; details: 100 ppm; assessed after 7 days
Outline: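 Engorged adult female ticks (8-10 per tube) fully immersed in compound from DMSO stock diluted with water to test concentration, then held in a climate-controlled room. Efficacy scored after 7 days from fertile egg laying, with eggs kept until hatching at about 42 days. 100% means no fertile eggs laid.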

Tetranychus urticae = Tetranychus urticae spray test, OP-resistant (bean leaf discs); type: in vivo; details: 100 g/ha; after 6 days
Protocol: (§2) After 6 days, the efficacy in % is determined.

Phaedon cochleariae = Phaedon cochleariae spray test; details: for efficacy: 100 g/ha, after 7 days; for pest or weed control at 100 g/ha: Phaedon cochleariae, 168 h, read-out: efficacy
Ctenocephalides felis [2] = experiment: Ctenocephalides felis in vitro contact test with adult cat fleas; type: in vivo; details: application rate 5 μg/cm^2 (=500 g/ha); after 48 h; dead or moribund fleas
Outline: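 Glass tubes were coated with compound in acetone (900 ppm solution gives 5 μg/cm²), dried, then loaded with 5–10 adult cat fleas. Held horizontal at room temperature and ambient humidity for 48 h. Efficacy is the % of fleas dead or moribund (motionless or uncoordinated after knock-down).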

Musca domestica = Musca domestica test; type: in vivo; details: 100 ppm; adult houseflies; after 2 days
Protocol: as §1
(§3) To produce a suitable active ingredient formulation, 10 mg of active ingredient are mixed with 0.5 ml of dimethyl sulfoxide, and the concentrate is diluted with water to the desired concentration.
Vessels containing a sponge treated with sugar solution and the active ingredient formulation of the desired concentration are populated with 10 adult houseflies (Musca domestica).

Ctenocephalides felis [3] = experiment: Ctenocephalides felis oral test; type: in vivo; details: 100 ppm in citrated cattle blood; after 2 days
Myzus persicae [4] = experiment: Myzus persicae spray test (Chinese cabbage leaf discs); type: in vivo; details: 100 g/ha; after 6 days
Protocol: as §2

Amblyomma hebraeum = Amblyomma hebraeum test (tick nymphs, immersion); type: in vivo; details: 100 ppm; after 42 days
Protocol: as §1, §3
Tick nymphs (Amblyomma hebraeum) are placed into perforated plastic beakers and immersed in the desired concentration for one minute. The ticks are transferred on filter paper into a Petri dish and stored in a climate-controlled cabinet.

Myzus persicae [5] = experiment: Myzus persicae spray test (bell pepper plants); type: in vivo; details: 4 ppm; after 6 days
Protocol: To produce further test concentrations, the latter is diluted with emulsifier-containing water. When addition of ammonium salts and/or penetrants is required, these are each added at a concentration of 1000 ppm to the preparation solution.
Bell pepper plants (Capsicum annuum), which are heavily infested by the green peach aphid (Myzus persicae), are treated by being sprayed with the active compound preparation at the desired concentration.
After 6 days, the kill in % is determined.

Stellaria meida (STEME) = experiment: Herbicidal activity, post-emergence; type: in vivo; details: 1280 g/ha, 3 weeks
Protocol: (§4) Seeds of monocotyledonous and dicotyledonous weeds and crop plants were placed in sandy loam in wood-fibre pots, covered with soil and cultivated in a greenhouse under good growth conditions. 2 to 3 weeks after sowing, the test plants are treated at the one-leaf stage. The compounds according to the invention, formulated as emulsion concentrates (EC), were then sprayed onto the green plant parts as an emulsion at a water application rate equating to 600 to 800 Uha with addition of 0.2% wetting agent. After the test plants have been left to stand in the greenhouse under optimal growth conditions for 3 weeks, the efficacy of the preparations was assessed visually in comparison to untreated controls (herbicidal efficacy in percent (%): 100% activity=the plants have died, 0% activity=like control plants). For example, compounds No. Ia-17, Ia-28 and Ia-37 at an application rate of 1280 g/ha each show at least 100% efficacy against Amaranthus retroflexus (AMARE) and Viola tricolor (VOTR).

[6] = test system: Abutilon theophrasti (ABUTH); experiment: Herbicidal activity, post-emergence; type: in vivo; details: 1280 g/ha, 3 weeks
Protocol: as §4

[7] = test system: Matricaria inodora (MATIN); experiment: Herbicidal activity, post-emergence; type: in vivo; details: 1280 g/ha, 3 weeks
Protocol: as §4

Viola tricolor (VIOTR) = experiment: Herbicidal activity, pre-emergence; type: in vivo; details: 1280 g/ha, 3 weeks
Text: (§5) Seeds of monocotyledonous and dicotyledonous weed plants and crop plants were placed in wood-fibre pots in sandy loam and covered with soil. The compounds according to the invention, formulated as emulsion concentrates (EC), were then applied to the surface of the covering soil as an emulsion at a water application rate equating to 600 to 800 Uha with addition of 0.2% wetting agent.
(§6) After the treatment, the pots were placed in a greenhouse and kept under good growth conditions for the test plants. The damage to the test plants was scored visually after a test period of 3 weeks by comparison with untreated controls (herbicidal activity in percent (%): 100% activity=the plants have died, 0% activity=like control plants). Here, for example, compounds No. Ia-17, Ia-37, Ia-28 and Ia-56 at an application rate of 1280 g/ha each show 100% efficacy against Amaranthus retroflexus (AMARE) and with the exception of Ia-56, even against Viola tricolor (VIOTR). Furthermore, compounds no. Ia-17, Ia-37 and Ia-28 at the same application rate show an 80% or better efficacy against Matricaria inodorae (MATIN) and Ia-17 and Ia-37 even against Stellaria media (STEME).

[8] = test system: Amaranthus retroflexus (AMARE); experiment: Herbicidal activity, pre-emergence; type: in vivo; details: 1280 g/ha, 3 weeks
Text: as §5, §6

[9] = test system: Anopheles gambiae strain RSPH (homozygot kdr); experiment: whole plant or invertebrate; type: in vivo; details: read-out: efficacy (mortality)
Protocol: (§7) • Solvent: acetone+2000 ppm rapeseed oil methyl ester (RME)
(§8) To produce a suitable active compound formulation, the active compound is dissolved in the solvent (2 mg/ml). The active compound formulation is pipetted onto a glazed tile and, after it has dried off, adult mosquitoes of the species Anopheles gambiae strain RSPH (homozygot kdr) are placed onto the treated tile. The exposure time is 30 minutes.

[10] = test system: Aedes aegypti strain MONHEIM; experiment: whole plant or invertebrate; type: in vivo; details: read-out: efficacy (mortality)
Protocol: as §7
as §8, with “Aedes aegypti” for “Anopheles gambiae”, “MONHEIM” for “RSPH (homozygot kdr)”

[11] = test system: Anopheles funestus strain FUMOZ-R; experiment: whole plant or invertebrate; type: in vivo; details: read-out: efficacy (mortality)
Protocol: as §7
as §8, with “funestus” for “gambiae”, “FUMOZ-R (Hunt et al., Med Vet Entomol. 2005 September; 19 (3):271-5)” for “RSPH (homozygot kdr)”

[12] = reversed-phase C18 HPLC column, logP, HPLC, C18, acetonitrile/water with formic acid (note a)

CC(=O)NCc1cc(-c2cnn(-c3c(C)cc(C(F)(C(F)(F)F)C(F)(F)F)cc3C)c2)ccc1F [Ia-13]
100%: efficacy (Rhipicephalus sanguineus) | efficacy (Spodoptera frugiperda) | efficacy (laying of fertile eggs) (Boophilus microplus) | efficacy (laying of fertile eggs) [1] | efficacy (Tetranychus urticae) | efficacy (Phaedon cochleariae) | efficacy (Ctenocephalides felis [2]) | efficacy (rate of extermination) (Musca domestica) | efficacy (rate of extermination) (Ctenocephalides felis [3]) | efficacy (Myzus persicae [4]) | efficacy (rate of extermination) (Amblyomma hebraeum)

CC(=O)NCc1cc(-c2cnn(-c3c(C)cc(C(F)(C(F)(F)F)C(F)(F)F)cc3C)c2)ccc1Cl [Ia-95]
80%: efficacy (Rhipicephalus sanguineus)
100%: efficacy (Spodoptera frugiperda) | efficacy (laying of fertile eggs) (Boophilus microplus) | efficacy (laying of fertile eggs) [1] | efficacy (Tetranychus urticae) | efficacy (Phaedon cochleariae) | efficacy (Ctenocephalides felis [2]) | efficacy (rate of extermination) (Musca domestica) | efficacy (rate of extermination) (Ctenocephalides felis [3])
85%: efficacy (kill) (Myzus persicae [5])

CC(=O)NCc1cccc(-c2cnn(-c3c(Cl)cc(C(F)(C(F)(F)F)C(F)(F)F)cc3[S+](C)[O-])c2)c1 (stereo not shown) [Ia-17]
≥ 80%: herbicidal efficacy (Stellaria meida (STEME)) | herbicidal efficacy [6] | herbicidal efficacy [7]
100%: herbicidal efficacy (Viola tricolor (VIOTR)) | herbicidal efficacy [8]

CC(=O)NCc1cc(-c2cnn(-c3c(Cl)cc(C(F)(C(F)(F)F)C(F)(F)F)cc3Cl)c2)ccc1Cl [Ia-05, N-(2-chloro-5-{1-[2,6-dichloro-4-(1,1,1,2,3,3,3-heptafluoropropan-2-yl)phenyl]-1H-pyrazol-4-yl}benzyl)acetamide]
4.13: chromatographic logP [12] | chromatographic logP (reversed-phase C18 HPLC column, logP^a, HPLC-MS method a))
100%: efficacy (Rhipicephalus sanguineus) | pest or weed control at 100 g/ha (Spodoptera frugiperda) | efficacy (laying of fertile eggs) (Boophilus microplus) | pest or weed control at 100 g/ha (Phaedon cochleariae) | efficacy (Ctenocephalides felis [2]) | efficacy (rate of extermination) (Musca domestica) | efficacy (rate of extermination) (Ctenocephalides felis [3])
90 to 100%: mortality at 20 mg/m2 [9] | mortality at 100 mg/m2 [9] | mortality at 20 mg/m2 [10] | mortality at 100 mg/m2 [10] | mortality at 20 mg/m2 [11] | mortality at 100 mg/m2 [11]

CCC(=O)NCc1cccc(-c2cnn(-c3c(C)cc(C(F)(C(F)(F)F)C(F)(F)F)cc3C)c2)c1 [Ia-28]
80%: efficacy (Rhipicephalus sanguineus) | efficacy (laying of fertile eggs) [1]
100%: efficacy (Spodoptera frugiperda) | efficacy (laying of fertile eggs) (Boophilus microplus) | efficacy (Tetranychus urticae) | efficacy (Phaedon cochleariae) | herbicidal efficacy (Viola tricolor (VIOTR)) | herbicidal efficacy [8] | efficacy (rate of extermination) (Musca domestica) | efficacy (rate of extermination) (Ctenocephalides felis [3])

CC(=S)NCc1cc(-c2cnn(-c3c(Cl)cc(C(F)(C(F)(F)F)C(F)(F)F)cc3Cl)c2)ccc1Cl [Ia-162, N-(2-chloro-5-{1-[2,6-dichloro-4-(1,1,1,2,3,3,3-heptafluoropropan-2-yl)phenyl]-1H-pyrazol-4-yl}benzyl)ethanethioamide]
100%: efficacy (Rhipicephalus sanguineus) | pest or weed control at 100 g/ha (Spodoptera frugiperda) | efficacy (laying of fertile eggs) (Boophilus microplus) | efficacy (Tetranychus urticae) | pest or weed control at 100 g/ha (Phaedon cochleariae) | efficacy (Ctenocephalides felis [2]) | efficacy (rate of extermination) (Musca domestica) | efficacy (rate of extermination) (Ctenocephalides felis [3])
90 to 100%: mortality at 20 mg/m2 [9] | mortality at 20 mg/m2 [10] | mortality at 20 mg/m2 [11]
4.98: chromatographic logP [12] | chromatographic logP (reversed-phase C18 HPLC column, logP^a, HPLC-MS method a), reversed-phase column (C18))
80%: efficacy (laying of fertile eggs) [1]

CCC(=O)NCc1cc(-c2cnn(-c3c(C)cc(C(F)(C(F)(F)F)C(F)(F)F)cc3C)c2)ccc1F [Ia-01]
100%: efficacy (Rhipicephalus sanguineus) | efficacy (Spodoptera frugiperda) | efficacy (laying of fertile eggs) (Boophilus microplus) | efficacy (laying of fertile eggs) [1] | efficacy (Tetranychus urticae) | efficacy (Phaedon cochleariae) | efficacy (Ctenocephalides felis [2]) | efficacy (rate of extermination) (Musca domestica) | efficacy (rate of extermination) (Ctenocephalides felis [3]) | efficacy (Myzus persicae [4]) | efficacy (rate of extermination) (Amblyomma hebraeum)

CC(=O)NCc1cccc(-c2cnn(-c3c(C)cc(C(F)(C(F)(F)F)C(F)(F)F)cc3C)c2)c1 [Ia-37]
100%: efficacy (laying of fertile eggs) (Boophilus microplus) | efficacy (Tetranychus urticae) | efficacy (Phaedon cochleariae) | herbicidal efficacy (Viola tricolor (VIOTR)) | herbicidal efficacy [8] | efficacy (rate of extermination) (Musca domestica) | efficacy (rate of extermination) (Ctenocephalides felis [3])
83%: efficacy (Spodoptera frugiperda)
80%: efficacy (Rhipicephalus sanguineus)
